# Laboratory results as given in article PMC5392334, “Discovery and characterization of a novel irreversible EGFR mutants selective and potent kinase inhibitor CHMFL-EGFR-26 with a distinct binding mode” (Oncotarget, 2017).
# How the values were obtained:
# [1] = target: T1, MET (Homo sapiens, UniProt P08581); assay: KinomeScan; type: binding; conditions: read-out: % control
# T1 construct: purchased DiscoveRx KINOMEscan
# [2] = target: T2, PKAC-alpha (Homo sapiens, UniProt P17612); assay: KinomeScan; type: binding; conditions: read-out: % control
# T2 construct: purchased DiscoveRx KINOMEscan
# [3] = target: T3, LKB1 (Homo sapiens, UniProt Q15831); assay: KinomeScan; type: binding; conditions: read-out: % control
# T3 construct: purchased DiscoveRx KINOMEscan
# [4] = target: T4, MAP4K3 (Homo sapiens, UniProt Q8IVH8); assay: KinomeScan; type: binding; conditions: read-out: % control
# T4 construct: purchased DiscoveRx KINOMEscan
# [5] = target: T5, PRKD1 (Homo sapiens, UniProt Q15139); assay: KinomeScan; type: binding; conditions: read-out: % control
# T5 construct: purchased DiscoveRx KINOMEscan
# T5 sequence (Q15139 whole entry): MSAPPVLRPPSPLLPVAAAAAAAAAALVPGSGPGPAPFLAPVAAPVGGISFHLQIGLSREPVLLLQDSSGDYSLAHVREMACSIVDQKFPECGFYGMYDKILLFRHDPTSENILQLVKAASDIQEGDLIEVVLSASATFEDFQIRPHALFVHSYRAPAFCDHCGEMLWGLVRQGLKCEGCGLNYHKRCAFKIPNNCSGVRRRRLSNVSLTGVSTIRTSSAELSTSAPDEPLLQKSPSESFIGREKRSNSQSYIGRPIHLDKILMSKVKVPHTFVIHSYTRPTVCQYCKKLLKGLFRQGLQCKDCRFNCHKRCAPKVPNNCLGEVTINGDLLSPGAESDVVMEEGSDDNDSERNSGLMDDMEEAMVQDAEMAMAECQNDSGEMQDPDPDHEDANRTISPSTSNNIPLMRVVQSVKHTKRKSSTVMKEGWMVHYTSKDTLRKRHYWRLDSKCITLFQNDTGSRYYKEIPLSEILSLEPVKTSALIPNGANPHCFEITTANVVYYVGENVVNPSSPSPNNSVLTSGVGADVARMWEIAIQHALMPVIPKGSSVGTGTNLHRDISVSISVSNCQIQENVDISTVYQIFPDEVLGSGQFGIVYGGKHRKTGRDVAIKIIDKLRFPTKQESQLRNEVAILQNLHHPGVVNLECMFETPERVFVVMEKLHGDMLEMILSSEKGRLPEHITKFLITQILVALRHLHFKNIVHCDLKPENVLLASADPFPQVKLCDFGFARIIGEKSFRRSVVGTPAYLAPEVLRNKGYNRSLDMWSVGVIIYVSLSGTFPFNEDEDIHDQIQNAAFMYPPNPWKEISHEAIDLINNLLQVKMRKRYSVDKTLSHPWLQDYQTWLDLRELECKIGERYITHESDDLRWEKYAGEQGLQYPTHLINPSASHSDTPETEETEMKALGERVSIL
# [6] = target: T6, NDR2 (Homo sapiens, UniProt Q9Y2H1); assay: KinomeScan; type: binding; conditions: read-out: % control
# T6 construct: purchased DiscoveRx KINOMEscan
# [7] = target: T7, ASK1 (Homo sapiens, UniProt Q99683); assay: KinomeScan; type: binding; conditions: read-out: % control
# T7 construct: purchased DiscoveRx KINOMEscan
# [8] = target: T8, TIE1 (Homo sapiens, UniProt P35590); assay: KinomeScan; type: binding; conditions: read-out: % control
# T8 construct: purchased DiscoveRx KINOMEscan
# [9] = target: T9, IKK-epsilon (Homo sapiens, UniProt Q14164); assay: KinomeScan; type: binding; conditions: read-out: % control
# T9 construct: purchased DiscoveRx KINOMEscan
# [10] = target: T10, ABL1(F317I)-nonphosphorylated (Homo sapiens, UniProt P00519, F317I); assay: KinomeScan; type: binding; conditions: read-out: % control
# T10 construct: purchased DiscoveRx KINOMEscan
# [11] = target: T11, GSK3B (Homo sapiens, UniProt P49841); assay: KinomeScan; type: binding; conditions: read-out: % control
# T11 construct: purchased DiscoveRx KINOMEscan
# [12] = target: T12, ABL1(H396P)-phosphorylated (Homo sapiens, UniProt P00519, H396P); assay: KinomeScan; type: binding; conditions: read-out: % control
# T12 construct: purchased DiscoveRx KINOMEscan
# [13] = target: T13, PIK3CA(H1047L) (Homo sapiens, UniProt P42336, H1047L); assay: KinomeScan; type: binding; conditions: read-out: % control
# T13 construct: purchased DiscoveRx KINOMEscan
# [14] = target: T14, IGF1R (Homo sapiens, UniProt P08069); assay: KinomeScan; type: binding; conditions: read-out: % control
# T14 construct: purchased DiscoveRx KINOMEscan
# [15] = target: T15, IRAK4 (Homo sapiens, UniProt Q9NWZ3); assay: KinomeScan; type: binding; conditions: read-out: % control
# T15 construct: purchased DiscoveRx KINOMEscan
# [16] = target: T16, AXL (Homo sapiens, UniProt P30530); assay: KinomeScan; type: binding; conditions: read-out: % control
# T16 construct: purchased DiscoveRx KINOMEscan
# [17] = target: T17, AURKA (Homo sapiens, UniProt O14965); assay: KinomeScan; type: binding; conditions: read-out: % control
# T17 construct: purchased DiscoveRx KINOMEscan
# [18] = target: T18, ABL1(Q252H)-phosphorylated (Homo sapiens, UniProt P00519, Q252H); assay: KinomeScan; type: binding; conditions: read-out: % control
# T18 construct: purchased DiscoveRx KINOMEscan
# [19] = target: T19, CSNK1D (Homo sapiens, UniProt P48730); assay: KinomeScan; type: binding; conditions: read-out: % control
# T19 construct: purchased DiscoveRx KINOMEscan
# [20] = target: T20, CAMK2B (Homo sapiens, UniProt Q13554); assay: KinomeScan; type: binding; conditions: read-out: % control
# T20 construct: purchased DiscoveRx KINOMEscan
# [21] = target: T21, CLK4 (Homo sapiens, UniProt Q9HAZ1); assay: KinomeScan; type: binding; conditions: read-out: % control
# T21 construct: purchased DiscoveRx KINOMEscan
# [22] = target: T22, SRPK3 (Homo sapiens, UniProt Q9UPE1); assay: KinomeScan; type: binding; conditions: read-out: % control
# T22 construct: purchased DiscoveRx KINOMEscan
# T22 sequence (Q9UPE1 whole entry): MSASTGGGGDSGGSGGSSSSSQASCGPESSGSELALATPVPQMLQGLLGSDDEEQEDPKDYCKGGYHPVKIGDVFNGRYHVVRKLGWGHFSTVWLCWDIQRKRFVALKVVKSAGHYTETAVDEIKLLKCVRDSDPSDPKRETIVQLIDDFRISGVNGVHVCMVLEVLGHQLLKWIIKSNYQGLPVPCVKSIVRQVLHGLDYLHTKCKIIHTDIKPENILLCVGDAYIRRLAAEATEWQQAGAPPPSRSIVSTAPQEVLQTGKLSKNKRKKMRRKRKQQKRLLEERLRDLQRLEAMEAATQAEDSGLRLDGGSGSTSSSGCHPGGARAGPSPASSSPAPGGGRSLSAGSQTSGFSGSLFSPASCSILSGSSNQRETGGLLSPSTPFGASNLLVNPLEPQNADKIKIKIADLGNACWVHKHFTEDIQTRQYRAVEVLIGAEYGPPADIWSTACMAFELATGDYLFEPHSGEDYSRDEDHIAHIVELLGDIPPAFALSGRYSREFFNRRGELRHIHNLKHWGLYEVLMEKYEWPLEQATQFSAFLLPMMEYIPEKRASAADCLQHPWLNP
# [23] = target: T23, GCN2(Kin.Dom.2,S808G) (Homo sapiens, UniProt Q9P2K8, S808G); assay: KinomeScan; type: binding; conditions: read-out: % control
# T23 construct: GCN2(Kin.Dom.2,S808G); purchased DiscoveRx KINOMEscan
# [24] = target: T24, FGR (Homo sapiens, UniProt P09769); assay: KinomeScan; type: binding; conditions: read-out: % control
# T24 construct: purchased DiscoveRx KINOMEscan
# T24 sequence (P09769 whole entry): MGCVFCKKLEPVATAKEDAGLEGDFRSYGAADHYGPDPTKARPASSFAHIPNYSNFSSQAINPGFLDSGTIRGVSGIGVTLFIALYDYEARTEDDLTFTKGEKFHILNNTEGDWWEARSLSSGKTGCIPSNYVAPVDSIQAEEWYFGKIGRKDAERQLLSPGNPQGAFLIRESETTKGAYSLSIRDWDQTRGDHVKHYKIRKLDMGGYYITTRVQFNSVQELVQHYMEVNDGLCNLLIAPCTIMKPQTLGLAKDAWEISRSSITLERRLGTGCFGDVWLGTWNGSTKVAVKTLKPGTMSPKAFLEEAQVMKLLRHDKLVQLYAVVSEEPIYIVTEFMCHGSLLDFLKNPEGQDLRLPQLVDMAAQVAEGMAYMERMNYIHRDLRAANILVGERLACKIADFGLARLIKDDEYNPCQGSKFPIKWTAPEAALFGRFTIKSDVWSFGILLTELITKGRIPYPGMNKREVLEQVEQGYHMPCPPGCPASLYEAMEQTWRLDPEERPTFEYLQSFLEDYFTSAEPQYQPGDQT
# [25] = target: T25, IRAK1 (Homo sapiens, UniProt P51617); assay: KinomeScan; type: binding; conditions: read-out: % control
# T25 construct: purchased DiscoveRx KINOMEscan
# [26] = target: T26, NEK10 (Homo sapiens, UniProt Q6ZWH5); assay: KinomeScan; type: binding; conditions: read-out: % control
# T26 construct: purchased DiscoveRx KINOMEscan
# [27] = tested on: p70S6K and eIF4E phosphorylations in H3255 cells; assay: Signaling pathway examination (immunoblotting); type: cell-based, human; conditions: 30 nM, 4 hours
# Source text: (§1) We next examined the effects of CHMFL-EGFR-26 on EGFR mediated signaling pathways in NSCLC cell lines with different EGFR mutants. […] As expected, in the EGFR wt expressing NCSCL cell lines A549 and H1355, only autophosphorylation of EGFR was affected and none of the downstream mediators was inhibited.
# (§2) Cells were then collected and lysed. Phospho-EGF Receptor, Phospho-EGF Receptor (Tyr1068), Stat3, Phospho-Stat3 (Tyr705), AKT, Phospho-AKT (Ser473), Phospho-AKT (Thr308), p44/42 MAPK (Erk1/2), Phospho-p44/42 MAPK (Erk1/2) (Thr202/ Tyr204), p70 S6 Kinase, Phospho-p70 S6 Kinase (Thr389), eIF4E, Phospho-eIF4E (Ser209), 4E-BP1, Phospho-4E-BP1 (Thr37/46) antibody (Cell Signaling Technology) were used for immunoblotting.
# [28] = tested on: autophosphorylation of EGFR Y1068 in H1975 cell line; assay: Signaling pathway examination (immunoblotting); type: cell-based, human; conditions: 10 nM, 4 hours
# Source text: as §1, §2
# [29] = target: T27, NEK1 (Homo sapiens, UniProt Q96PY6); assay: KinomeScan; type: binding; conditions: read-out: % control
# T27 construct: purchased DiscoveRx KINOMEscan
# [30] = target: T28, EGFR(L747-S752del, P753S) (Homo sapiens, UniProt P00533, DEL747-752/P753S); assay: KinomeScan; type: binding; conditions: read-out: % control
# T28 construct: purchased DiscoveRx KINOMEscan
# T28 sequence (P00533 with tags, fused parts or gaps DEL747-752/P753S limits assumed): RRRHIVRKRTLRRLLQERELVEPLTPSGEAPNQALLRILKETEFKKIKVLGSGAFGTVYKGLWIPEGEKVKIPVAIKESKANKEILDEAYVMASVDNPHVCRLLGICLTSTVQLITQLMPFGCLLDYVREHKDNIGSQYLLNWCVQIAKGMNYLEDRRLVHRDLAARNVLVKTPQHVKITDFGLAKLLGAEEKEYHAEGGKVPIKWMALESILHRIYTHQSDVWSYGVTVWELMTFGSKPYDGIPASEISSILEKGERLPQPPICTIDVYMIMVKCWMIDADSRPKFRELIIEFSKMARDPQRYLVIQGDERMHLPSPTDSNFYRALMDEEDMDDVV
# [31] = target: T29, PHKG1 (Homo sapiens, UniProt Q16816); assay: KinomeScan; type: binding; conditions: read-out: % control
# T29 construct: purchased DiscoveRx KINOMEscan
# [32] = target: T30, CSK (Homo sapiens, UniProt P41240); assay: KinomeScan; type: binding; conditions: read-out: % control
# T30 construct: purchased DiscoveRx KINOMEscan
# T30 sequence (P41240 whole entry): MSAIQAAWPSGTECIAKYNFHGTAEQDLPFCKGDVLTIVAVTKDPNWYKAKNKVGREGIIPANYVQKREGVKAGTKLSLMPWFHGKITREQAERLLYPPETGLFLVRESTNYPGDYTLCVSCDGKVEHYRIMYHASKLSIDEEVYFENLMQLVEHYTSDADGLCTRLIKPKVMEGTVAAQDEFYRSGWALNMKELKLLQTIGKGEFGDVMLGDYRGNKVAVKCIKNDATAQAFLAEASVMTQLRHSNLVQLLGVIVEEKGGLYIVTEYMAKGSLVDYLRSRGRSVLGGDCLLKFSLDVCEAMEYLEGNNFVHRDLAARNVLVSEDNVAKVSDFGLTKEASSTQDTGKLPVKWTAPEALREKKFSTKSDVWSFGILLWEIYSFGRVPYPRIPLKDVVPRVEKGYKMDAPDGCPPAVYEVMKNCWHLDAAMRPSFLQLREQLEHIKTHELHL
# [33] = target: T31, ANKK1 (Homo sapiens, UniProt Q8NFD2); assay: KinomeScan; type: binding; conditions: read-out: % control
# T31 construct: purchased DiscoveRx KINOMEscan
# [34] = target: T32, DLK (Homo sapiens, UniProt Q12852); assay: KinomeScan; type: binding; conditions: read-out: % control
# T32 construct: purchased DiscoveRx KINOMEscan
# T32 sequence (Q12852 whole entry): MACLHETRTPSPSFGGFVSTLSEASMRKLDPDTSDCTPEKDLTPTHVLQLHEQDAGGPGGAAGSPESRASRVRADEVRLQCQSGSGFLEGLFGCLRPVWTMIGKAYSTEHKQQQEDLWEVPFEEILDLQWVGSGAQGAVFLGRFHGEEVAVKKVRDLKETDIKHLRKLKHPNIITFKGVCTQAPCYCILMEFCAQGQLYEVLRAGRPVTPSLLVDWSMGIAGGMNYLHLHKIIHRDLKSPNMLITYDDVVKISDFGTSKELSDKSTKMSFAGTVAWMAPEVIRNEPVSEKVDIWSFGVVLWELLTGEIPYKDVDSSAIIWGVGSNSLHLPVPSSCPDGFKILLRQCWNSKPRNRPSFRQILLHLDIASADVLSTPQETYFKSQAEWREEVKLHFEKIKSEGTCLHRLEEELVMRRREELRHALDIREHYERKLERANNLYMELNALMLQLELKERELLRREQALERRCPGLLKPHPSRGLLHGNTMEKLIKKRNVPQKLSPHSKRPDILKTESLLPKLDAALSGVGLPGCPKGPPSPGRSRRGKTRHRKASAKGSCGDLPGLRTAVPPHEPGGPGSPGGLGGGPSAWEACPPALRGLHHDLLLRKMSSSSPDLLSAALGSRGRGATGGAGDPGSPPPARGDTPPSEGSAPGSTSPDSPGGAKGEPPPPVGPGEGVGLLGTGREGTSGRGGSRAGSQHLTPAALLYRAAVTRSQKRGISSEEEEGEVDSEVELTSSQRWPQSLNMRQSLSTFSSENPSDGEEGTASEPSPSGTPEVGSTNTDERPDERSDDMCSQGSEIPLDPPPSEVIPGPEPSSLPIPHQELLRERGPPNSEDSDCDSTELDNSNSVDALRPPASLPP
# [35] = target: T33, MST2 (Homo sapiens, UniProt Q13188); assay: KinomeScan; type: binding; conditions: read-out: % control
# T33 construct: purchased DiscoveRx KINOMEscan
# [36] = target: T34, KIT(D816H) (Homo sapiens, UniProt P10721, D816H); assay: KinomeScan; type: binding; conditions: read-out: % control
# T34 construct: purchased DiscoveRx KINOMEscan
# T1 sequence (P08581 25-1390): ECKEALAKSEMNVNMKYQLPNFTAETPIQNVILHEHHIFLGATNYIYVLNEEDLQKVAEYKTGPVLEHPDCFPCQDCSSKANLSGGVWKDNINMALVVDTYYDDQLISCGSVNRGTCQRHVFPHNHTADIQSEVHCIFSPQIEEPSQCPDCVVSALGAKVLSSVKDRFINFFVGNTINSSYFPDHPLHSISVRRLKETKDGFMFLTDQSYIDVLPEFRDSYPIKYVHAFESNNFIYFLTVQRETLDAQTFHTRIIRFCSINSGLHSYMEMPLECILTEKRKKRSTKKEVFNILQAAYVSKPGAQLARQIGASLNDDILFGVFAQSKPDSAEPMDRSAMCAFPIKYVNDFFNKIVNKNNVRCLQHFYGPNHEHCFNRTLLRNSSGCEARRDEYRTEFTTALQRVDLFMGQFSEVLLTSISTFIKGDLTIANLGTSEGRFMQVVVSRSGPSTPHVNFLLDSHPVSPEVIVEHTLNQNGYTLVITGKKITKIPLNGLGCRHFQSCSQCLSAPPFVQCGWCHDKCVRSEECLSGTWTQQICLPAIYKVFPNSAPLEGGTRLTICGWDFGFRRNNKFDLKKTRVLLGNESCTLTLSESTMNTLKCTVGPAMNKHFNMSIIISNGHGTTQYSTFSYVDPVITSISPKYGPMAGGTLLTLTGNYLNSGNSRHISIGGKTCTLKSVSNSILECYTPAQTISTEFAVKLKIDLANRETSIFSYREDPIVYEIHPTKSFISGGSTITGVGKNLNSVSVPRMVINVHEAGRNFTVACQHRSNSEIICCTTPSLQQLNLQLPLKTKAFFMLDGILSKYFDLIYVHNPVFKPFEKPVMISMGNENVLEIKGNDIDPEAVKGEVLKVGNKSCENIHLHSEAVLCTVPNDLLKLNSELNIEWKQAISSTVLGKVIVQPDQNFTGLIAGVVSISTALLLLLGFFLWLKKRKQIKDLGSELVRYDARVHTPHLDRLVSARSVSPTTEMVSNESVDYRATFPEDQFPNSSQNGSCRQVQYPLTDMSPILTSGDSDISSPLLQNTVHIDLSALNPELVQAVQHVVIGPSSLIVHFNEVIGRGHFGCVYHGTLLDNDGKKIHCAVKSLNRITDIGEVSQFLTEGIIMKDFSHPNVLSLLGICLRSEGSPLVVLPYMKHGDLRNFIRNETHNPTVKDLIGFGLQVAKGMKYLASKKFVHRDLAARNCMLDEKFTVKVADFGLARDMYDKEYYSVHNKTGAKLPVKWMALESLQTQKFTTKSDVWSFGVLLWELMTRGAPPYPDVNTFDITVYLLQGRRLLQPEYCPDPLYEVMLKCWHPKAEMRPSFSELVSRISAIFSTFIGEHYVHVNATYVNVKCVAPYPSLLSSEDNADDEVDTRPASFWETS
smiles,measurement,setting,value
C=CC(=O)N1CCC[C@@H](n2nc(-c3ccc(OCc4cccc(C)n4)c(Cl)c3)c3c(N)ncnc32)C1 [CHMFL-EGFR-26],remaining binding at 1 µM,[1],96%
same,remaining binding at 1 µM,[2],100%
same,remaining binding at 1 µM,[3],79%
same,remaining binding at 1 µM,[4],97%
same,remaining binding at 1 µM,[5],85%
same,remaining binding at 1 µM,[6],100%
same,remaining binding at 1 µM,[7],97%
same,remaining binding at 1 µM,[8],69%
same,remaining binding at 1 µM,[9],100%
same,remaining binding at 1 µM,[10],100%
same,remaining binding at 1 µM,[11],97%
same,remaining binding at 1 µM,[12],100%
same,remaining binding at 1 µM,[13],81%
same,remaining binding at 1 µM,[14],100%
same,remaining binding at 1 µM,[15],100%
same,remaining binding at 1 µM,[16],83%
same,remaining binding at 1 µM,[17],97%
same,remaining binding at 1 µM,[18],100%
same,remaining binding at 1 µM,[19],95%
same,remaining binding at 1 µM,[20],97%
same,remaining binding at 1 µM,[21],100%
same,remaining binding at 1 µM,[22],90%
same,remaining binding at 1 µM,[23],90%
same,remaining binding at 1 µM,[24],86%
same,remaining binding at 1 µM,[25],100%
same,remaining binding at 1 µM,[26],99%
same,mTOR-p70S6K and eIF4E phosphorylations,[27],completely blocked
same,autophosphorylation of EGFR Y1068,[28],almost completely suppress
same,remaining binding at 1 µM,[29],92%
same,remaining binding at 1 µM,[30],20%
same,remaining binding at 1 µM,[31],100%
same,remaining binding at 1 µM,[32],32%
same,remaining binding at 1 µM,[33],94%
same,remaining binding at 1 µM,[34],78%
same,remaining binding at 1 µM,[35],53%
same,remaining binding at 1 µM,[36],100%
